# Data as given in US10092551B2, “Spiro-thiazolones” (Hoffmann-La Roche Inc., priority 2014, dated 2018).
# Where a name gives a salt, the structure may show the parent alone.
# Target: human V1a receptor (Homo sapiens (Human), UniProt P37288)
# Assay: human V1a receptor binding studies (3H-Vasopressin, SPA beads)
# Conditions: membranes of HEK293 cells transiently transfected with human V1a receptor, Ki by Cheng-Prussoff
# Procedure: The human V1a receptor was cloned by RT-PCR from total human liver RNA. The coding sequence was subcloned in an expression vector after sequencing to confirm the identity of the amplified sequence. […] Cell membranes were prepared from HEK293 cells transiently transfected with the expression vector and grown in 20 liter fermenters with the following protocol.
# 50 g of cells are re-suspended in 30 ml freshly prepared ice cold Lysis buffer (50 mM HEPES, 1 mM EDTA, 10 mM MgCl2 adjusted to pH=7.4+complete cocktail of protease inhibitor (Roche Diagnostics)). Homogenized with Polytron for 1 min and sonicated on ice for 2×2 minutes at 80% intensity (Vibracell sonicator). The preparation is centrifuged 20 min at 500 g at 4° C., the pellet is discarded and the supernatant centrifuged 1 hour at 43,000 g at 4° C. (19,000 rpm). The pellet is re-suspended in 12.5 ml Lysis buffer+12.5 ml Sucrose 20% and homogenized using a Polytron for 1-2 min. The protein concentration is determined by the Bradford method and aliquots are stored at −80° C. until use. For binding studies 60 mg Yttrium silicate SPA beads (Amersham) are mixed with an aliquot of membrane in binding buffer (50 mM Tris, 120 mM NaCl, 5 mM KCl, 2 mM CaCl2, 10 mM MgCl2) for 15 minutes with mixing. 50 μl of bead/membrane mixture is then added to each well of a 96 well plate, followed by 50 μl of 4 nM 3H-Vasopressin (American Radiolabeled Chemicals). For total binding measurement 100 μl of binding buffer are added to the respective wells, for non-specific binding 100 μl of 8.4 mM cold vasopressin and for compound testing 100 μl of a serial dilution of each compound in 2% DMSO. The plate is incubated 1 h at room temperature, centrifuged 1 min at 1000 g and counted on a Packard Top-Count. Non-specific binding counts are subtracted from each well and data is normalized to the maximum specific binding set at 100%. To calculate an IC 50 the curve is fitted using a non-linear regression model (XLfit) and the Ki is calculated using the Cheng-Prussoff equation.
# Sequence of human V1a receptor (P37288 whole entry): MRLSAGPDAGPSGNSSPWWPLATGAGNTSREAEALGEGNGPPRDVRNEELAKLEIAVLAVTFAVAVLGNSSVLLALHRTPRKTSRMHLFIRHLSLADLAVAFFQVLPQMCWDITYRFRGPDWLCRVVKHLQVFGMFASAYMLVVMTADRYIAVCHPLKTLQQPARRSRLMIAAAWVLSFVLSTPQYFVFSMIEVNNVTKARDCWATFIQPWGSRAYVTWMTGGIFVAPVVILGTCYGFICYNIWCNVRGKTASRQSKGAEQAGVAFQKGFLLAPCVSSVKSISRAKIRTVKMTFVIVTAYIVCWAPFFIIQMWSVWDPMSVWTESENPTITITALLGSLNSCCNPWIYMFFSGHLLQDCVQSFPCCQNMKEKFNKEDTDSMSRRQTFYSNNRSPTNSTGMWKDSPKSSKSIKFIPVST
row,Compound,pKi hV1a
1,"C/C(=C1/SC(N2CCC3(CC2)OCc2ccccc23)=NC1=O)c1cc2ncccc2o1 [Example 108, (5E/Z)-5-[1-(furo[3,2-b]pyridin-2-yl)ethylidene]-2-(1′H,3H-spiro[2-benzofuran-1,4′-piperidin]-1′-yl)-1,3-thiazol-4(5H)-one]",7.0
2,"O=C1N=C(N2CCC3(CC2)OCc2ccccc23)SC1=C1Cc2ccccc2C1 [Example 161, 5-(1,3-dihydro-2H-inden-2-ylidene)-2-(1′H,3H-spiro[2-benzofuran-1,4′-piperidin]-1′-yl)-1,3-thiazol-4(5H)-one]",7.8
3,"O=C1N=C(N2CCC3(CC2)OCc2ccccc23)S/C1=C1/CCCCc2ccc(Cl)cc21 [Example 89, (5E/Z)-5-(3-chloro-6,7,8,9-tetrahydro-5H-benzo[7]annulen-5-ylidene)-2-(1′H,3H-spiro[2-benzofuran-1,4′-piperidin]-1′-yl)-1,3-thiazol-4(5H)-one]",9.0
4,"C/C(=C1/SC(N2[C@@H]3CC[C@H]2C[C@@]2(C3)OC(=O)c3ccccc32)=NC1=O)c1ccc(Cl)cc1 [Example 5, 8-{(5E/Z)-5-[1-(4-chlorophenyl)ethylidene]-4-oxo-4,5-dihydro-1,3-thiazol-2-yl}-3′H-spiro[8-azabicyclo[3.2.1]octane-3,1′-[2]benzofuran]-3′-one]",8.9
5,"O=C1N=C(N2CCC3(CC2)OCc2ccccc23)SC1=C(c1ccccn1)c1ccccn1 [Example 110, 5-[di(pyridin-2-yl)methylidene]-2-(1′H,3H-spiro[2-benzofuran-1,4′-piperidin]-1′-yl)-1,3-thiazol-4(5H)-one]",7.6
6,"O=C1N=C(N2CCC3(CC2)OCc2ccccc23)S/C1=C\c1ccccc1 [Example 9, (5Z)-5-benzylidene-2-(1′H,3H-spiro[2-benzofuran-1,4′-piperidin]-1′-yl)-1,3-thiazol-4(5H)-one]",8.4
7,"CC(C)(C)[Si](C)(C)OC/C(=C1/SC(N2CCC3(CC2)OC(=O)c2ccccc23)=NC1=O)c1ccc(Cl)nc1 [Example 144, 1′-{(5E)-5-[2-{[tert-butyl(dimethyl)silyl]oxy}-1-(6-chloropyridin-3-yl)ethylidene]-4-oxo-4,5-dihydro-1,3-thiazol-2-yl}-3H-spiro[2-benzofuran-1,4′-piperidin]-3-one]",8.0
8,"C/C(=C1/SC(N2CCC3(CC2)OCc2ncccc23)=NC1=O)c1cccnc1 [Example 165, (5E/Z)-5-[1-(pyridin-3-yl)ethylidene]-2-(1′H,7H-spiro[furo[3,4-b]pyridine-5,4′-piperidin]-1′-yl)-1,3-thiazol-4(5H)-one]",7.5
9,"O=C1N=C(N2CCC3(CC2)OCc2ccccc23)S/C1=C1/COCc2ccccc21 [Example 87, (5E/Z)-5-(1H-isochromen-4(3H)-ylidene)-2-(1′H,3H-spiro[2-benzofuran-1,4′-piperidin]-1′-yl)-1,3-thiazol-4(5H)-one]",8.9
10,"O=C1N=C(N2CCC3(CC2)OC(=O)c2ccccc23)S/C1=C(/CO)c1ccccc1 [Example 143, 1′-[(5E)-5-(2-hydroxy-1-phenylethylidene)-4-oxo-4,5-dihydro-1,3-thiazol-2-yl]-3H-spiro[2-benzofuran-1,4′-piperidin]-3-one]",8.8
11,"O=C1N=C(N2CCC3(CC2)OC(=O)c2ccccc23)SC1=C(C1CC1)C1CC1 [Example 139, 1′-[5-(dicyclopropylmethylidene)-4-oxo-4,5-dihydro-1,3-thiazol-2-yl]-3H-spiro[2-benzofuran-1,4′-piperidin]-3-one]",8.5
12,"O=C1N=C(N2CCC3(CC2)OCc2ccccc23)S/C1=C1/CCCc2ccc(Cl)cc21 [Example 20, (5E/Z)-5-(7-chloro-3,4-dihydronaphthalen-1 (2H)-ylidene)-2-(1′H,3H-spiro[2-benzofuran-1,4′-piperidin]-1′-yl)-1,3-thiazol-4(5H)-one]",9.0
13,"O=C1N=C(N2CCC3(CC2)OCc2ccccc23)SC1=C1c2ccccc2Oc2ccccc21 [Example 103, 2-(1′H,3H-spiro[2-benzofuran-1,4′-piperidin]-1′-yl)-5-(9H-xanthen-9-ylidene)-1,3-thiazol-4(5H)-one]",8.6
14,"CC(C)/C(=C1\SC(N2CCC3(CC2)OC(=O)c2ccccc23)=NC1=O)c1ccc(Cl)nc1 [Example 148, 1′-{(5E)-5-[1-(6-chloropyridin-3-yl)-2-methylpropylidene]-4-oxo-4,5-dihydro-1,3-thiazol-2-yl}-3H-spiro[2-benzofuran-1,4′-piperidin]-3-one]",6.8
15,"O=C1N=C(N2CCC3(CC2)OCc2ccccc23)SC1=C1CCS(=O)(=O)CC1 [Example 60, 5-(1,1-dioxidotetrahydro-4H-thiopyran-4-ylidene)-2-(1′H,3H-spiro[2-benzofuran-1,4′-piperidin]-1′-yl)-1,3-thiazol-4(5H)-one]",8.0

# Further lines, results first:
row,pKi hV1a,Compound
1,8.2,"C/C(=C1/SC(N2CCC3(CC2)OCc2ccccc23)=NC1=O)c1cccc(Cl)c1 [Example 12, (5E/Z)-5-[1-(3-chlorophenyl)ethylidene]-2-(1′H,3H-spiro[2-benzofuran-1,4′-piperidin]-1′-yl)-1,3-thiazol-4(5H)-one]"
2,8.1,"Cc1cc(/C=C2\SC(N3CCC4(CC3)OCc3ccccc34)=NC2=O)no1 [Example 93, 5-[(5-methyl-1,2-oxazol-3-yl)methylidene]-2-(1′H,3H-spiro[2-benzofuran-1,4′-piperidin]-1′-yl)-1,3-thiazol-4(5H)-one]"
3,9.4,"O=C1N=C(N2CCC3(CC2)OCc2ccccc23)S/C1=C(/CF)c1ccc(Cl)cc1 [Example 23, (5E/Z)-5-[1-(4-chlorophenyl)-2-fluoroethylidene]-2-(1′H,3H-spiro[2-benzofuran-1,4′-piperidin]-1′-yl)-1,3-thiazol-4(5H)-one]"
4,7.9,"CC(C)(C)/C(=C1/SC(N2CCC3(CC2)OCc2ccccc23)=NC1=O)c1ccc(Cl)cc1 [Example 21, (5E/Z)-5-[1-(4-chlorophenyl)-2,2-dimethylpropylidene]-2-(1′H,3H-spiro[2-benzofuran-1,4′-piperidin]-1′-yl)-1,3-thiazol-4(5H)-one]"
5,8.8,"CC(C)C(=C1SC(N2CCC3(CC2)OCc2ccccc23)=NC1=O)C(C)C [Example 120, 5-(2,4-dimethylpentan-3-ylidene)-2-(1′H,3H-spiro[2-benzofuran-1,4′-piperidin]-1′-yl)-1,3-thiazol-4(5H)-one]"
6,9.2,"C/C(=C1/SC(N2CCC3(CC2)OCc2ccccc23)=NC1=O)c1ccc(Cl)cc1 [Example 26, (5Z)-5-[1-(4-chlorophenyl)ethylidene]-2-(1′H,3H-spiro[2-benzofuran-1,4′-piperidin]-1′-yl)-1,3-thiazol-4(5H)-one]"
7,8.8,"C/C(=C1/SC(N2CCC3(CC2)OCc2ccccc23)=NC1=O)c1cccnc1Cl [Example 83, (5Z)-5-[1-(2-chloropyridin-3-yl)ethylidene]-2-(1′H,3H-spiro[2-benzofuran-1,4′-piperidin]-1′-yl)-1,3-thiazol-4(5H)-one]"
8,8.6,"CC/C(=C1/SC(N2CCC3(CC2)OCc2ccccc23)=NC1=O)c1cc(C)on1 [Example 64, (5E/Z)-5-[1-(5-methyl-1,2-oxazol-3-yl)propylidene]-2-(1′H,3H-spiro[2-benzofuran-1,4′-piperidin]-1′-yl)-1,3-thiazol-4(5H)-one]"
9,8.9,"C/C(=C1/SC(N2CCC3(CC2)OCc2ccccc23)=NC1=O)c1ccccc1F [Example 40, (5E/Z)-5-[1-(2-fluorophenyl)ethylidene]-2-(1′H,3H-spiro[2-benzofuran-1,4′-piperidin]-1′-yl)-1,3-thiazol-4(5H)-one]"
10,8.8,"[2H]C([2H])([2H])/C(=C1/SC(N2CCC3(CC2)OCc2ccccc23)=NC1=O)c1ccc(C)nc1 [Example 169, (5Z)-5-[1-(6-methylpyridin-3-yl)(^2H3)ethylidene]-2-(1′H,3H-spiro[2-benzofuran-1,4′-piperidin]-1′-yl)-1,3-thiazol-4(5H)-one]"
11,8.3,"C/C(=C1/SC(N2CCC3(CC2)OCc2ccccc23)=NC1=O)c1cnn(C)c1 [Example 62, (5Z)-5-[1-(1-methyl-1H-pyrazol-4-yl)ethylidene]-2-(1′H,3H-spiro[2-benzofuran-1,4′-piperidin]-1′-yl)-1,3-thiazol-4(5H)-one]"

# Same assay, conditions: membranes of HEK293 cells transiently transfected with human V1a receptor, Ki by Cheng-Prussoff, read-out: pKi hV1a (converted)
row,Ki [nM],Compound
1,5.01,"NCC(=C1SC(N2CCC3(CC2)OCc2ccccc23)=NC1=O)c1ccccc1 (racemic) [Example 160, (5E/Z)-5-(2-amino-1-phenylethylidene)-2-(1′H,3H-spiro[2-benzofuran-1,4′-piperidin]-1′-yl)-1,3-thiazol-4(5H)-one trifluoroacetate]"
